Results on 18 compounds are retold here after patent US9040545B2, “Heterocyclyl pyrazolopyrimidine analogues as selective JAK inhibitors” (Cellzome Limited, priority 2010, dated 2015).

pIC50: −log10 of the molar value. Some results are limits rather than exact numbers.

The pIC50 is the IC50 on a negative log10 scale, so that one unit is a factor of ten.

One test has as its target T1, JAK2 (Homo sapiens, UniProt O60674).
T1 construct: endogenous in cells; host or cells: mixed Molt4/Ramos lysate (1:2)
As to the kind of experiment: Kinobeads assay, JAK2. The settings on record: mixed Molt4/Ramos lysate, read-out: Inhibition values (IC50) JAK2. Type of test: binding. An outline of the steps:
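Competition binding in mixed Molt4/Ramos cell lysate (1:2, 10 mg/mL protein) with Kinobeads carrying immobilized aminopyrido-pyrimidine ligand, 3 h in cold room; 9-step 1:3 compound dilution series from 5 mM DMSO stock. Bead-bound JAK2/JAK3 eluted and quantified by antibody dot blot with infrared detection; IC50 from dose-response curves.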

The target of another test is T2, Aurora A (Homo sapiens, UniProt O14965).
T2 construct: cell lysates from Jurkat cells (ATCC TIB-152) used; endogenous in cells; host or cells: Jurkat cells (ATCC TIB-152), treated with pervanadate
T2 sequence (O14965 1-403): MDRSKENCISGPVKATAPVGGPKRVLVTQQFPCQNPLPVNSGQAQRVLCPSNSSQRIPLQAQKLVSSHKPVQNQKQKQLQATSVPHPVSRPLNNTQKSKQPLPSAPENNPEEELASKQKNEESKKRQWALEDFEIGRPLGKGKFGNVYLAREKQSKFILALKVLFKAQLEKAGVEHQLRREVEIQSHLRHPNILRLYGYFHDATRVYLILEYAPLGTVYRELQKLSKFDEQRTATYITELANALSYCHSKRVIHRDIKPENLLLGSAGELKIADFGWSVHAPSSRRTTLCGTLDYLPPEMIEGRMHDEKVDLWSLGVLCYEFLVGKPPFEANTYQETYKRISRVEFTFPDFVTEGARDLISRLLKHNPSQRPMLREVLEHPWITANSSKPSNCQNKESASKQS
Nature of the test: Kinobeads assay, Aurora A. Type of test: binding. The settings on record: for pIC50: lysate of pervanadate-treated Jurkat cells, read-out: Inhibition values (IC50) Aur A.

T1 sequence (O60674 whole entry): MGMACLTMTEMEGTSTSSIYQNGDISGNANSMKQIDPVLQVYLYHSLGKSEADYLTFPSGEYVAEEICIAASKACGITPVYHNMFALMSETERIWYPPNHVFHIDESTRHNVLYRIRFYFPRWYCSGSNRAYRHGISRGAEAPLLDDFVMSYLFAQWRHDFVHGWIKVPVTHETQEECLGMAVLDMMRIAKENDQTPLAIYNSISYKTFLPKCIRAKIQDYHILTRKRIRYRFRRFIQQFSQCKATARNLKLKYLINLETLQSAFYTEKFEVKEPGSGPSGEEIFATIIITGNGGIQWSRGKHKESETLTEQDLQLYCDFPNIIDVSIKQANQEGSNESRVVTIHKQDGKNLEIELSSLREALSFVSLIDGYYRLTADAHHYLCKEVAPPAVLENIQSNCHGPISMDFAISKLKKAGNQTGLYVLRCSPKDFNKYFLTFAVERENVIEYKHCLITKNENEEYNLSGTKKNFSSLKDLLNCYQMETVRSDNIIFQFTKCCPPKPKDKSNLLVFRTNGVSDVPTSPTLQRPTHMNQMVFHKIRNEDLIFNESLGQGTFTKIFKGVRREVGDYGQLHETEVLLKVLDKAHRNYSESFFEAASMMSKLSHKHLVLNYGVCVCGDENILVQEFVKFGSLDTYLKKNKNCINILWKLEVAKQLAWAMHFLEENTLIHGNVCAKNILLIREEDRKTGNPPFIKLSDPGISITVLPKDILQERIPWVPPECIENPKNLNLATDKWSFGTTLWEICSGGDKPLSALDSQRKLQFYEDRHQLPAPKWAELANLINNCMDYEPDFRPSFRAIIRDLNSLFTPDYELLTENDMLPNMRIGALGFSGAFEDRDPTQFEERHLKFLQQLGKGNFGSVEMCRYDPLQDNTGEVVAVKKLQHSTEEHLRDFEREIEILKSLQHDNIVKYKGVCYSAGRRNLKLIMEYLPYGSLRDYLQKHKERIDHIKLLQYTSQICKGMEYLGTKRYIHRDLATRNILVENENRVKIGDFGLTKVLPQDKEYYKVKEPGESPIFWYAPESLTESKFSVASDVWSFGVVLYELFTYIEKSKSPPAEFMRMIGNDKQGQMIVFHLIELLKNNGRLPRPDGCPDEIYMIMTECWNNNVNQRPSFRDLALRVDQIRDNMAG

With `Cn1cc(Nc2ncc3cnn(Cc4cc(F)cc(N5CCNCC5=O)c4)c3n2)cn1` [Example 64, 1-(3-Fluoro-5-((6-((1-methyl-1H-pyrazol-4-yl)amino)-1H-pyrazolo[3,4-d]pyrimidin-1-yl)methyl)phenyl)piperazin-2-one], the pIC50 at JAK2 was 5.00 to 6.00. At Aurora A, the “JAK3/AurA Fold Selectivity” value is on record as 10-50 Fold and the pIC50 was 6.00 to 7.00.

Consider `COC1CN(c2cccc(Cn3ncc4cnc(Nc5cnn(C)c5)nc43)c2)C1` [Example 65, 1-(3-(3-Methoxyazetidin-1-yl)benzyl)-N-(1-methyl-1H-pyrazol-4-yl)-1H-pyrazolo[3,4-d]pyrimidin-6-amine], for which the pIC50 at JAK2 was at most 5.00. Further, at Aurora A, the “JAK3/AurA Fold Selectivity” value is over 50 Fold and the pIC50 was 5.00 to 6.00.

On to `Cn1cc(Nc2ncc3cnn(Cc4c(F)c(F)cc(N5CCNCC5)c4F)c3n2)cn1` [Example 66, N-(1-Methyl-1H-pyrazol-4-yl)-1-(2,3,6-trifluoro-5-(piperazin-1-yl)benzyl)-1H-pyrazolo[3,4-d]pyrimidin-6-amine], for which the pIC50 at JAK2 is 5.00 to 6.00. Moreover, at Aurora A, the “JAK3/AurA Fold Selectivity” value is 10-50 Fold and the pIC50 is 6.00 to 7.00.

As to `Cn1cc(Nc2ncc3cnn(Cc4cccc(N5CCNCC5)c4F)c3n2)cn1` [Example 67, 1-(2-Fluoro-3-(piperazin-1-yl)benzyl)-N-(1-methyl-1H-pyrazol-4-yl)-1H-pyrazolo[3,4-d]pyrimidin-6-amine], the pIC50 at JAK2 was 5.00 to 6.00. At Aurora A, the “JAK3/AurA Fold Selectivity” value was over 50 Fold and the pIC50 was 6.00 to 7.00.

As to `CNC(=O)Cn1cc(Nc2ncc3cnn(Cc4cc(F)cc(N5CCOCC5=O)c4)c3n2)cn1` [Example 68, 2-(4-((1-(3-Fluoro-5-(3-oxomorpholino)benzyl)-1H-pyrazolo[3,4-d]pyrimidin-6-yl)amino)-1H-pyrazol-1-yl)-N-methylacetamide], the pIC50 at JAK2 was 5.00 to 6.00. Besides, at Aurora A, the “JAK3/AurA Fold Selectivity” value was 10-50 Fold and the pIC50 is 6.00 to 7.00.

For the compound `Cn1cc(Nc2ncc3cnn(Cc4c(F)ccc(N5CCOCC5=O)c4F)c3n2)cn1` [Example 69, 4-(2,4-Difluoro-3-((6-((1-methyl-1H-pyrazol-4-yl)amino)-1H-pyrazolo[3,4-d]pyrimidin-1-yl)methyl)phenyl)morpholin-3-one], the pIC50 on JAK2 was 5.00 to 6.00. For the same compound, at Aurora A, the “JAK3/AurA Fold Selectivity” value is 3-10 Fold and the pIC50 was over 7.00.

As for `CN(C)CCCn1cc(Nc2ncc3cnn(Cc4c(F)c(F)cc(N5CCOCC5=O)c4F)c3n2)cn1` [Example 70, 4-(3-((6-((1-(3-(Dimethylamino)propyl)-1H-pyrazol-4-yl)amino)-1H-pyrazolo[3,4-d]pyrimidin-1-yl)methyl)-2,4,5-trifluorophenyl)morpholin-3-one], the pIC50 on JAK2 and at Aurora A was 5.00 to 6.00 each time. Also, at Aurora A, the “JAK3/AurA Fold Selectivity” value is over 50 Fold.

For the compound `Cn1cc(Nc2ncc3cnn(Cc4cc(N5CCNCC5=O)cc(F)c4F)c3n2)cn1` [Example 71, 1-(3,4-Difluoro-5-((6-((1-methyl-1H-pyrazol-4-yl)amino)-1H-pyrazolo[3,4-d]pyrimidin-1-yl)methyl)phenyl)piperazin-2-one], the negative logarithm of the IC50 (pIC50) on JAK2 is at most 5.00. Also, at Aurora A, the “JAK3/AurA Fold Selectivity” value is given as 10-50 Fold and the negative logarithm of the IC50 (pIC50) is 6.00 to 7.00.

On to `O=C1CNCCN1c1cc(F)c(F)c(Cn2ncc3cnc(Nc4cnn(CCO)c4)nc32)c1` [Example 72, 1-(3,4-Difluoro-5-((6-((1-(2-hydroxyethyl)-1H-pyrazol-4-yl)amino)-1H-pyrazolo[3,4-d]pyrimidin-1-yl)methyl)phenyl)piperazin-2-one], for which the pIC50 at JAK2 is at most 5.00. For the same compound, at Aurora A, the “JAK3/AurA Fold Selectivity” value is recorded as 10-50 Fold and the pIC50 was 6.00 to 7.00.

Regarding `Cn1cc(Nc2ncc3cnn(Cc4cc(F)cc(N5CCOCC5=O)c4F)c3n2)cn1` [Example 73, 4-(2,5-Difluoro-3-((6-((1-methyl-1H-pyrazol-4-yl)amino)-1H-pyrazolo[3,4-d]pyrimidin-1-yl)methyl)phenyl)morpholin-3-one], the pIC50 at JAK2 is 6.00 to 7.00. Further, at Aurora A, the “JAK3/AurA Fold Selectivity” value is listed as 10-50 Fold and the pIC50 was 6.00 to 7.00.

As to `O=C1COCCN1c1cc(F)cc(Cn2ncc3cnc(Nc4cnn(CCO)c4)nc32)c1F` [Example 74, 4-(2,5-Difluoro-3-((6-((1-(2-hydroxyethyl)-1H-pyrazol-4-yl)amino)-1H-pyrazolo[3,4-d]pyrimidin-1-yl)methyl)phenyl)morpholin-3-one], the pIC50 at JAK2 is 6.00 to 7.00. Moreover, on Aurora A, the “JAK3/AurA Fold Selectivity” value is recorded as 10-50 Fold and the pIC50 was over 7.00.

Regarding `CN(C)CCCn1cc(Nc2ncc3cnn(Cc4c(F)ccc(N5CCOCC5=O)c4F)c3n2)cn1` [Example 75, 4-(3-((6-((1-(3-(Dimethylamino)propyl)-1H-pyrazol-4-yl)amino)-1H-pyrazolo[3,4-d]pyrimidin-1-yl)methyl)-2,4-difluorophenyl)morpholin-3-one], at JAK2, the pIC50 is 5.00 to 6.00. Moreover, on Aurora A, the “JAK3/AurA Fold Selectivity” value is listed as 10-50 Fold and the pIC50 was 6.00 to 7.00.

On to `Cn1cc(Nc2ncc3cnn(Cc4c(F)ccc(N5CCNCC5=O)c4F)c3n2)cn1` [Example 76, 1-(2,4-Difluoro-3-((6-((1-methyl-1H-pyrazol-4-yl)amino)-1H-pyrazolo[3,4-d]pyrimidin-1-yl)methyl)phenyl)piperazin-2-one], for which, on JAK2, the pIC50 was 5.00 to 6.00. Also, at Aurora A, the “JAK3/AurA Fold Selectivity” value is given as 3-10 Fold and the pIC50 was over 7.00.

Take `COC1CCN(c2cccc(Cn3ncc4cnc(Nc5cnn(C)c5)nc43)c2)CC1` [Example 77, 1-(3-(4-Methoxypiperidin-1-yl)benzyl)-N-(1-methyl-1H-pyrazol-4-yl)-1H-pyrazolo[3,4-d]pyrimidin-6-amine]: on JAK2, the pIC50 was at most 5.00. Besides, on Aurora A, the “JAK3/AurA Fold Selectivity” value was 3-10 Fold and the pIC50 was 6.00 to 7.00.

`OCCn1cc(Nc2ncc3cnn(Cc4cc(N5CCNCC5)cc(F)c4F)c3n2)cn1` [Example 78, 2-(4-((1-(2,3-Difluoro-5-(piperazin-1-yl)benzyl)-1H-pyrazolo[3,4-d]pyrimidin-6-yl)amino)-1H-pyrazol-1-yl)ethanol]: at JAK2, the negative logarithm of the IC50 (pIC50) was 5.00 to 6.00. Besides, at Aurora A, the “JAK3/AurA Fold Selectivity” value is given as 10-50 Fold and the pIC50 was 6.00 to 7.00.

Consider `Cn1cc(Nc2ncc3cnn(Cc4cc(F)cc(C(=O)N5CCOCC5)c4)c3n2)cn1` [Example 79, (3-Fluoro-5-((6-((1-methyl-1H-pyrazol-4-yl)amino)-1H-pyrazolo[3,4-d]pyrimidin-1-yl)methyl)phenyl)(morpholino)methanone], for which the pIC50 at JAK2 was 6.00 to 7.00. On Aurora A, the “JAK3/AurA Fold Selectivity” value was 10-50 Fold and the pIC50 was 6.00 to 7.00.

Consider `Cn1cc(Nc2ncc3cnn(Cc4cc(F)cc(C(=O)N5CCNCC5)c4)c3n2)cn1` [Example 80, (3-Fluoro-5-((6-((1-methyl-1H-pyrazol-4-yl)amino)-1H-pyrazolo[3,4-d]pyrimidin-1-yl)methyl)phenyl)(piperazin-1-yl)methanone], for which the pIC50 at JAK2 was 5.00 to 6.00. At Aurora A, the “JAK3/AurA Fold Selectivity” value is 3-10 Fold and the pIC50 is 6.00 to 7.00.

For `Fc1cc(N2CCOCC2)c(F)c(Cn2ncc3cnc(Nc4cn[nH]c4)nc32)c1F` [Example 81, N-(1H-Pyrazol-4-yl)-1-(2,3,6-trifluoro-5-morpholinobenzyl)-1H-pyrazolo[3,4-d]pyrimidin-6-amine], the pIC50 at JAK2 is 5.00 to 6.00. Moreover, on Aurora A, the “JAK3/AurA Fold Selectivity” value is over 50 Fold and the pIC50 is 6.00 to 7.00.
